Results: patent US9198433B2, “Substituted benzene fungicides” (E I DU PONT DE NEMOURS AND COMPANY, priority 2007, dated 2015)
Read-outs that look alike come from different tables or passages of the source. Marks after values point to notes of the source that are not given here.

Experiments:
Type in all cases: in vivo
[1] = tested on: Septoria tritici; assay: Test D: wheat leaf blotch, preventive spray on wheat seedlings, disease rating
Method in brief: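 Wheat seedlings sprayed to run-off with compound in acetone/water containing 250 ppm Trem 014 (200 ppm ≈ 500 g/ha; some results at 40 or 50 ppm), inoculated next day with Septoria tritici spores. Held 48 h saturated at 24 °C, then 19 days at 20 °C before disease rating.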

[2] = tested on: Puccinia recondita f. sp. tritici; assay: Test B: wheat leaf rust, preventive spray on wheat seedlings, disease rating
Method in brief: (§1)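 Compounds in acetone/water (50/50) with 250 ppm Trem 014 surfactant, sprayed to run-off on wheat seedlings as a preventive treatment before disease rating. Tested at 200 ppm (equivalent to 500 g/ha) unless marked for 40 ppm or 50 ppm.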

[3] = tested on: Botrytis cinerea; assay: Test F: tomato Botrytis, preventive spray on tomato seedlings, disease rating; conditions: 200 ppm
Method in brief: (§2)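 Tomato seedlings sprayed to run-off, as a preventive treatment, with compound suspended in acetone/water (50/50) containing 250 ppm Trem 014 surfactant; 200 ppm equals 500 g/ha. Disease then rated. Values are at 200 ppm unless marked * (40 ppm) or ** (50 ppm).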

[4] = tested on: Pythium aphanidermatum; assay: Test L: bluegrass pythium blight, preventive spray on bluegrass seedlings, disease rating
Text: The test compounds were first dissolved in acetone in an amount equal to 3% of the final volume and then suspended at the desired concentration (in ppm) in acetone and purified water (50/50 mix) containing 250 ppm of the surfactant Trem® 014 (polyhydric alcohol esters). The resulting test suspensions were then used in Tests A-L. Spraying a 200 ppm test suspension to the point of run-off on the test plants was the equivalent of an application rate of 500 g/ha. The test suspension was sprayed to the point of run-off on bluegrass seedlings. […] A dash (-) indicates no test results. All results are for 200 ppm except where followed by an “*”, which indicates 40 ppm or “**”, which indicates 50 ppm.

[5] = tested on: Phytophthora infestans; conditions: 200 ppm; tomato late blight
[6] = tested on: Plasmopara viticola; assay: Test K: grape downy mildew, spray on grape seedlings after inoculation, disease rating
Text: The test compounds were first dissolved in acetone in an amount equal to 3% of the final volume and then suspended at the desired concentration (in ppm) in acetone and purified water (50/50 mix) containing 250 ppm of the surfactant Trem® 014 (polyhydric alcohol esters). The resulting test suspensions were then used in Tests A-L. Spraying a 200 ppm test suspension to the point of run-off on the test plants was the equivalent of an application rate of 500 g/ha. Grape seedlings were inoculated with a spore suspension of Plasmopara viticola (the causal agent of grape downy mildew) and incubated in a saturated atmosphere at 20° C. for 24 h. After a short drying period, the test suspension was sprayed to the point of run-off on the grape seedlings and then moved to a growth chamber at 20° C. for 6 days, after which the test units were placed back into a saturated atmosphere at 20° C. for 24 h. Upon removal, disease ratings were made. […] A dash (-) indicates no test results. All results are for 200 ppm except where followed by an “*”, which indicates 40 ppm or “**”, which indicates 50 ppm.

[7] = tested on: Erysiphe graminis f. sp. tritici; assay: Test A: wheat powdery mildew, preventive spray on wheat seedlings, disease rating
Method in brief: as §1

[8] = tested on: Septoria nodorum; assay: Test C: wheat glume blotch, preventive spray on wheat seedlings, disease rating
Method in brief: as §1

[9] = tested on: Fusarium graminearum; conditions: wheat head scab
[10] = tested on: Alternaria solani; assay: Test H: tomato early blight, preventive spray on tomato seedlings, disease rating
Method in brief: as §2

[11] = tested on: Rhizoctonia oryzae; assay: Test I: turf brown patch, preventive spray on creeping bent grass seedlings, disease rating; conditions: 200 ppm
Text: The test compounds were first dissolved in acetone in an amount equal to 3% of the final volume and then suspended at the desired concentration (in ppm) in acetone and purified water (50/50 mix) containing 250 ppm of the surfactant Trem® 014 (polyhydric alcohol esters). The resulting test suspensions were then used in Tests A-L. Spraying a 200 ppm test suspension to the point of run-off on the test plants was the equivalent of an application rate of 500 g/ha. The test suspension was sprayed to the point of run-off on creeping bent grass seedlings. […] A dash (-) indicates no test results. All results are for 200 ppm except where followed by an “*”, which indicates 40 ppm or “**”, which indicates 50 ppm.

SMILES	Percentage Disease Control, Test D ([1]; 40 ppm (*))	Percentage Disease Control, Test B ([2]; 40 ppm (*))	Percentage Disease Control, Test F [3] [%]	Percentage Disease Control, Test L ([4]; 200 ppm) [%]	Percentage Disease Control, Test J [5] [%]	Percentage Disease Control, Test K ([6]; 200 ppm) [%]	Percentage Disease Control, Test A ([7]; 40 ppm (*))	Percentage Disease Control, Test C ([8]; 40 ppm (*))	Percentage Disease Control, Test E ([9]; 200 ppm) [%]	Percentage Disease Control, Test H ([10]; 200 ppm) [%]	Percentage Disease Control, Test I [11] [%]	Percentage Disease Control, Test B ([2]; 200 ppm) [%]	Percentage Disease Control, Test A ([7]; 200 ppm) [%]	Percentage Disease Control, Test C ([8]; 200 ppm) [%]	Percentage Disease Control, Test L ([4]; 40 ppm (*))	Percentage Disease Control, Test K ([6]; 40 ppm (*))	Percentage Disease Control, Test D ([1]; 200 ppm) [%]	Percentage Disease Control, Test E ([9]; 40 ppm (*))	Percentage Disease Control, Test H ([10]; 40 ppm (*))
COC(=O)NOc1cc(-c2cccc(OC(F)(F)F)c2)ccc1Cl [Cmpd 18]	98* %	99* %	0	98	89	81	100* %	99* %	100	70	0								
COC(=O)NCc1cc(-c2ccn(Cc3cccc(C)n3)n2)ccc1Cl [Cmpd 20]			0	0	0	0			72	0	0	100	99	96					
COC(=O)NCc1cc(-c2cc[nH]n2)ccc1Cl [Cmpd 21]			0	0	0	0			0	0	0	79	0	0					
COC(=O)NCc1cc(-c2ccn(CCC(C)C)n2)ccc1Cl [Cmpd 22]	85* %	95* %	0		50	99	99* %		99	0	0			99	94* %				
COC(=O)NCc1cc(-c2ccn(CCC[Si](C)(C)C)n2)ccc1Cl [Cmpd 23]	98* %	100* %	0		91		99* %	100* %	99	0	0				93* %	99* %			
COC(=O)NCc1cc(-c2ccn(Cc3cnc(Cl)s3)n2)ccc1Cl [Cmpd 25]			37	0	0	63			77	76	0	96	91	78			96		
COC(=O)NCc1cc(-c2ccn(CC#N)n2)ccc1Cl [Cmpd 26]			0	0	60	6			0	0	0	73	0	0			26		
CC[Si](C)(C)Cn1ccc(-c2ccc(Cl)c(CNC(=O)OC)c2)n1 [Cmpd 27]	96* %	99* %	0	0	0	76		94* %	93	0	0		96						
COC(=O)NCc1cc(-c2ccn(C)n2)ccc1Cl [Cmpd 28]			0	0	0	25			0	28	0	88	54	0			86		
COC(=O)NCc1cc(-c2ccn(-c3ccccc3)n2)ccc1Cl [Cmpd 34]	100* %	100* %	0	0	0	78	97* %	97* %			0							98* %	90* %
COC(=O)NCc1cc(C(C)=NOCC[Si](C)(C)C)ccc1Cl [Compound 1, methyl N-[[2-chloro-5-[1-[[2-(trimethylsilyl)ethoxy]imino]ethyl]phenyl]-methyl]carbamate]	100* %		0	0	0	66			100	0	0	100	100	100					
C=C(CON=C(C)c1ccc(Cl)c(CNC(=O)OC)c1)C[Si](C)(C)C [Compound 3]	16* %		0	0	0	26			87		0	100	98	99					
C=C[Si](C)(C)CON=C(C)c1ccc(Cl)c(CNC(=O)OC)c1 [Compound 4]	59* %		37	0	0	74			97		0	99	98	99					
COC(=O)NCc1cc(C(C)=NOC[Si](C)(C)c2ccc(Cl)cc2)ccc1Cl [Compound 5]	100* %		0	0	0	23			0	77	0	100	99	99					
